We go through six molecules from patent US7435872B2, “Role of p62 in aging-related disease” (Samsung Electronics, Co., Ltd., priority 2002, dated 2008).

SMILES strings stand for the structures. Square brackets hold non-standard residues; d marks the D form. Peptide text beside a SMILES is read from it. * marks the point of attachment. Nle = CCCC[C@H](N)C(=O)O; Cbz = O=C(OCc1ccccc1)*

The test system of assay [1] is p62+/+ and p62-/- mouse embryo fibroblast (MEF). The assay is described as follows: Cell viability by MTT assay after glutathione depletion. Type of assay: cell-based. Conditions: different concentrations of DEM or BSO; p62-null versus wild type MEFs. The method, then: (§1) FIGS. 44A-44B show effects of glutathione depletion on cell viability in p62+/+ and p62−/− mouse embryo fibroblast (MEF). Cell viability was assessed with a methylthiazolium (MTT) assay, which measures mitochondrial dehydrogenase activity of viable cells spectrophotometrically. MEF (3×10^3 cells/well) in 96-well plates were treated with different concentrations of DEM (A) or BSO (B) washed with PBS and then incubated with 0.5 mg/ml MTT in PBS for 4 h. To solubilize the formazan products, […] DMSO was added. The absorption values at 570 nm were determined.
as §1, with “In addition to the above, FIGS.” for “FIGS.”, “determined. […] This death of p62-null MEFs is an apoptotic process (FIG. 48). Thus, p62 appears to have the function of regulating cellular redox status and/or cellular reactive oxygen species (ROS) generation and scavenging systems.” for “determined.”

For assay [2], the system named is mouse embryonic fibroblasts (MEFs). The assay can be described thus: Ubiquitin-positive inclusion formation in MEFs. Type of assay: cell-based. Also noted: dose or concentration left out as unconfirmed. Conditions: 12 hours. The source says: FIGS. 37A-37B show p62 aggregates formed in MEF in the presence of GSH-depletor. […] Bar=10 μm.
Ubiquitin-p62 inclusion is formed in mouse embryonic fibroblasts. […] MEFs from p62 null embryos were transfected with a p62 expression vector.
Further, p62-positive intracellular inclusion are also formed by oxidative stress. For instance, FIGS. 37A-37B show the formation of p62- or ubiquitin-positive aggregates in MEF in the presence of glutathione (GSH) depletory, diethylmaleate (DEM). […] Thus, p62 has a function to collect misfolded and/or ubiquitinated intracellular proteins and make intracellular inclusions.

The test system of the next assay is p62 gene. The assay is described as follows: Activation of the p62 gene, immunoblot and RNA analysis. Conditions: COS7 cells, 20 mM LLnL, with or without actinomycin D. In kind it is cell-based. The source says:
Equivalent loading was confirmed by anti-beta-actin immunoblotting. […] Equivalent loading of RNA was confirmed by staining 28S and 18S ribosomal RNA with ethidium bromide (lower panel).

In a further assay the test system is HEK 293 cells. The assay can be described thus: Colocalization of p62 with multi-ubiquitin chain. In kind it is cell-based. Conditions: increasing concentrations of LLnL, 16 hours.
For assay [3], the system named is COS7 cells. The assay can be described thus: Sequestosome (p62 inclusion) formation, anti-p62 immunostaining. Details: p62 accumulation in sequestosome / cellular inclusion formation in the presence of translational inhibitor: dose or concentration left out as unconfirmed. Conditions: 12 hours; for formation of sequestosome: 20 mM ALLN, 5 mM lactacystin, 10 mM MG 132, 50 nM epoxomicin.

Assay [4] has as its system COS7 cells. The assay is described as follows: p62 level in triton X-100 soluble and insoluble fractions, immunoblot. Conditions: plus cycloheximide. Also noted: dose or concentration left out as unconfirmed. In kind it is cell-based.

Consider `CCCCS(=N)(=O)CCC(N)C(=O)O` (stereo not shown) [BSO, buthioninesulfoximine], for which, in assay [1], the “cell viability (MTT) on glutathione depletion” value is on record as “p62-null MEFs die more readily compared with wild type MEFs”.

`CCCC[C@@H](C=O)NC(=O)[C@H](CC(C)C)NC(=O)[C@H](CC(C)C)NC(C)=O` [LLnL] (Ac-Leu-Leu-[Nle]-aldehyde): in assay [2], the “ubiquitin-positive inclusion formation, p62-heterozygote MEF” value was “can form the inclusion but less efficiently”; the “ubiquitin-positive inclusion formation, p62-null MEF” value is recorded as “cannot form the inclusion at all”; the “ubiquitin-positive inclusion formation, p62 wild type MEF” value is “formed ubiquitin-positive inclusions well”. In addition, the “p62 gene activation / p62 level” value in the assay on p62 gene is recorded as “activation of the p62 gene”. Besides, the “colocalization of p62 with multi-ubiquitin chain” value with HEK 293 cells was “colocalization of p62 with multi-ubiquitin chain”. Moreover, in the assay with COS7 cells [3], the “p62 accumulation in sequestosome” value is “p62 accumulates in sequestosome” and the formation of sequestosome entry is on record as “can induce formation of sequestosome”.

On to `CC(C)C[C@@H](C=O)NC(=O)[C@H](CC(C)C)NC(=O)[C@H](CC(C)C)NC(=O)OCc1ccccc1` [MG 132] (Cbz-Leu-Leu-Leu-aldehyde), for which, in the assay with COS7 cells [3], the formation of sequestosome entry is recorded as “can induce formation of sequestosome”.

As for `C[C@@H]1C[C@@H]([C@H](O)CC2CC(=O)NC(=O)C2)C(=O)[C@@H](C)C1` [cycloheximide], in the assay with COS7 cells [4], the p62 cellular level entry is listed as “not increased”. Further, the “cellular inclusion formation in the presence of translational inhibitor” value in the assay on COS7 cells [3] (plus cycloheximide) is “not formed”.

Turning to `CC[C@H](C)[C@H](NC(=O)[C@H]([C@@H](C)CC)N(C)C(C)=O)C(=O)N[C@H](C(=O)N[C@@H](CC(C)C)C(=O)[C@@]1(C)CO1)[C@@H](C)O` [epoxomicin], the formation of sequestosome entry in the assay on COS7 cells [3] is “can induce formation of sequestosome”.

Turning to `CC(=O)N[C@@H](CSC(=O)[C@]1([C@@H](O)C(C)C)NC(=O)[C@H](C)[C@@H]1O)C(=O)O` [lactacystin], the formation of sequestosome entry with COS7 cells [3] is reported as “can induce formation of sequestosome”.
